Reference: US20240251785A1, “SMALL MOLECULE ANTAGONISTS AND AGONISTS OF ARTHROPOD KININ RECEPTORS FOR PEST CONTROL” (The Texas A&M University System, priority 2021, published 2024)
Read-outs that look alike come from different tables or passages of the source. Where no end group is shown, it is not given here.

How the values were obtained:
[1] = system: Human dermal fibroblasts (HDF) cells; test: Cytotoxicity assay (resazurin); format: cell-based
[2] = target: recombinant tick kinin receptor (BMLK3) (Rhipicephalus microplus, UniProt Q9NHA4); test: Dose-response dual-addition calcium fluorescence assay on BMLK3 cells; format: cell-based; conditions: for activity type in dose-response assay, in words: Rhimi-K-1 1 μmol L^−1; for inhibition at 12 µM: read-out: Inhibitory Efficacy at 12 μM
[3] = system: vector-only (V/O) CHO-K1 cells; test: Dose-response dual-addition calcium fluorescence assay on vector-only cells; format: cell-based
[4] = system: R. microplus kinin receptor; test: High-throughput dual-addition calcium fluorescence screen on BMLK3 cells; format: cell-based, Rhipicephalus microplus; conditions: compound 2 μmol L^−1, 5 min, then FFFSWGa 500 nmol L^−1
[5] = system: isolated hindguts from females of the mosquito Aedes aegypti; test: Hindgut contraction inhibition assay
Experimental: A mosquito colony of Ae. aegypti (Diptera: Culicidae), Liverpool strain, was maintained at 26.5° C. in a 16 h:8 h, light:dark photoperiod and provided with 10% sugar water, as described previously.^31 For the experiment, 3-5-day-old females were used, and the assay was modified based on our previous protocol.^33 A group of six female mosquitoes were cold-anesthetized on a Petri dish placed on ice, where both wings were removed. Mosquitoes became active when the plate was removed from the ice. The dissection dish was filled with Ringer's solution (150 mmol L^−1 NaCl, 25 mmol L^−1 HEPES, 3.4 mmol L^−1 KCl, 7.5 mmol L^−1 NaOH, 1.8 mmol L^−1 NaHCO3. 1 mmol L^−1 MgSO4, 1.7 mmol L^−1 CaCl2 and 5 mmol L^−1 glucose, pH 7.1) at room temperature. To dissect the hindgut of each mosquito, their head and thorax were removed with forceps, and the abdomen was submerged in the Ringer solution. The hindgut, ovaries and Malpighian tubules (MTs), and midgut were taken out by pulling the last segment of the abdomen under the Ringer solution. Then, the ovaries and the majority of the midgut were removed using scissors leaving the intact hindgut and MTs. The isolated tissue was transferred with forceps, gripping on the cuticle of the last segment, into a drop of 30 μL Ringer solution in a 12-well-plate (Greiner Bio-One®, 665,102). After six mosquitoes were dissected as a group, paraffin oil (1-2 mL) was added to each well to cover the saline. The cuticle of the last abdominal segment was drawn out of the Ringer solution into the oil for better observation of the hindgut contraction. The tissues were filmed using an Olympus SZ60 camera (Olympus America Inc., Center Valley, PA, USA) mounted on a dissecting microscope.
First, the hindgut basal contraction rate was recorded by filming each tissue for 60 s. […] After 5 min of incubation at room temperature, 15 μL kinin agonist analog 1728 solution (4×in Ringer solution) was added to the Ringer solution to reach a final concentration of 10 μmol L^−1. After 1 h of incubation, the tissue was filmed again for 60 s.
The contractible hindgut of mosquito consists of a funnel-shaped pylorus located immediately after the posterior midgut, followed by a long, coiled ileum, and a bulbous colon which contains the rectal pads, and a tapering rectal tube at the posterior end.^35 To analyze each video, the hindgut contraction number was counted by observing the contraction occurring at the junction between the pyloric sphincter and the most anterior ileum. The hindgut contraction rate was expressed as the number of contractions observed over 60 s. The fold change in contraction rate was calculated as the contraction rate estimated at 1 h post treatment divided by the basal rate estimated before the treatment with the chemicals. Each treatment was repeated with 30 female mosquitoes independently. All statistical analyses were done by PRISM software (v8, GraphPad). The differences in fold-change of the contraction rates among treatments were analyzed using the nonparametric Kruskal-Wallis test, followed by the Dunn's multiple comparison test. […].

[6] = Human dermal fibroblasts cells, tested at 20 μcool L^−1
[7] = first addition, 20 concentrations 28 nM-25 μM, read-out: BMLK3 EC50
[8] = second addition Rhimi-K-1 1 μmol L^−1, read-out: BMLK3 IC50
[9] = summary of 36 validated antagonist hits, BMLK3 cells, read-out: BMLK3 EC50
[10] = summary of 36 validated antagonist hits, BMLK3 cells, read-out: BMLK3 IC50
[11] = V/O cells, second addition Rhimi-K-1 1 μmol L^−1, read-out: V/O antagonist IC50
[12] = summary of 36 validated antagonist hits, vector-only cell (V/O)
[13] = Table 5 analogs, V/O cells, read-out: V/O antagonist IC50
[14] = virtual hit molecules, dual-addition assay, recombinant tick kinin receptor (BMLK3) cells, read-out: BMLK3 EC50
[15] = virtual hit molecules, dual-addition assay, recombinant tick kinin receptor (BMLK3) cells, read-out: BMLK3 antagonist IC50
[16] = Cricetulus griseus, CHO-K1, summary of 36 validated antagonist hits, vector-only cell (V/O)
[17] = virtual hit molecules, dual-addition assay, vector-only cell (V/O)
[18] = virtual hit molecules, dual-addition assay, vector-only cell (V/O), read-out: V/O antagonist IC50

Sequence of recombinant tick kinin receptor (BMLK3) (Q9NHA4 entry or part of it): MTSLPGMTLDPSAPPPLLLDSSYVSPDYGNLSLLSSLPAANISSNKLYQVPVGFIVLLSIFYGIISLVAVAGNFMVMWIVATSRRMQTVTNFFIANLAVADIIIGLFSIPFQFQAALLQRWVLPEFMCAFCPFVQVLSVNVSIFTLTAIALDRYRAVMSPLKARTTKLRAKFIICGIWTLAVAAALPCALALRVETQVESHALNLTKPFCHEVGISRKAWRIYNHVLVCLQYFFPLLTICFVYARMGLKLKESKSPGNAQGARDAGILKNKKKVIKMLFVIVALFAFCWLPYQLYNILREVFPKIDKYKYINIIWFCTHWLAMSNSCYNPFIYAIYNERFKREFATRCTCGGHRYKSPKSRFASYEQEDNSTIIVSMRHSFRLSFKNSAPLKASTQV

| Molecule | Inhibitory Efficacy at 12 μM ([2]; 12 μM, BMLK3 cells) [%] | EC50 [2, 7] [µM] | IC50 [2, 8] [µM] | EC50 [2, 9] [µM] | IC50 [2, 10] [µM] | HDF average % growth inhibition [1, 6] [%] | EC50 ([3]; V/O cells, first addition) [µM] | IC50 [3, 11] [µM] | EC50 [3, 12] [µM] | IC50 [3, 12] [µM] | other results |
| --- | --- | --- | --- | --- | --- | --- | --- | --- | --- | --- | --- |
| C[C@@](O)(C#Cc1ccccc1)c1ccc(N2CCCCC2)c(F)c1 [SACC-0006795] | 33.05 | > 25 | 17.3 | > 25 | 17.3 | −1.773 | < 0.0285 | > 25 | < 0.0285 | > 25 | antagonist Io (%) [4]: 55% |
| CCCC[n+]1c(/C=C2/C=CN(CC)c3ccc(C)cc32)ccc2ccccc21 [SACC-0048555] | 107.39 | 8.88 | 1.51 | 8.88 | 1.51 | −9.767 | 12.8 | 3.59 | 12.8 | 3.59 | activity type in dose-response assay, in words ([2]; BMLK3 cells): full agonist; antagonist Io (%) [4]: 54% |
| COc1ccc(S(=O)(=O)Nc2ccc(O)c(Sc3nc4ccccc4s3)c2)cc1 [SACC-0089495] |  |  |  |  |  | −2.817 |  |  |  |  | inhibition at 12 µM ([2]; 12 μM, BMLK3 cells): 71.3%; EC50 [2, 14]: 3.04 µM; IC50 [2, 15]: 6.53 µM; IC50 [3, 16]: 5.99 µM; EC50 ([3]; Cricetulus griseus, CHO-K1, virtual hit molecules, dual-addition assay, vector-only cell (V/O)): 9.06 µM; IC50 ([3]; Cricetulus griseus, CHO-K1, virtual hit molecules, dual-addition assay, vector-only cell (V/O), read-out: V/O antagonist IC50): 5.99 µM |
| NPFHAWG-NH2 [aedeskinin 2, reference compound] |  |  |  |  |  |  |  |  |  |  | hindgut contraction rate, in words ([5]; 1 μmol L^−1, 1 h (data not shown)): increase of hindgut contraction rate |
| C/C(CCC(C)C)=N\N=C(/S)NCc1ccccc1 [SACC-0018618] | 55.77 | > 25 | 4.29 | > 25 | 4.29 | 7.327 | > 25 | > 25 | > 25 | > 25 | activity type in dose-response assay, in words ([2]; BMLK3 cells): full agonist; antagonist Io (%) [4]: 58% |
| Cc1ccc(-c2csc3ncnc(NCc4ccco4)c23)cc1 [SACC-0033457] | 55.73 | 0.122 | 14.8 | 0.122 |  | 8.023 | 11.5 | 0.679 |  |  | antagonist Io (%) [4]: 63% |
| CCCCCCCCn1c2c(c(=N)c3c1CCC3)CCCC2 [SACC-0050177] | 35.48 | 7.08 | > 25 | 7.08 | > 25 | 38.55 | > 25 | 12.3 | > 25 | 12.3 |  |
| Cc1csc2ncnc(NCCc3ccc(Cl)cc3)c12 [SACC-0039590] | 69.87 |  |  |  |  | −13.23 |  |  | 1.63 | 5.58 | EC50 [3, 17]: 1.63 µM; IC50 [3, 18]: 5.58 µM |
| CCN1C=C/C(=C\C=C\c2cc[n+](CC)c3ccccc23)c2ccccc21 [SACC-0054132] | 37.34 |  |  | < 0.0285 | 3.69 | 9.037 |  |  | 2.56 | 0.207 | EC50 [2, 14]: < 0.0285 µM; IC50 [2, 15]: 3.69 µM; EC50 [3, 17]: 2.56 µM; IC50 [3, 18]: 0.207 µM |
| C/N=c1\[nH]c2cc([N+](=O)[O-])c([N+](=O)[O-])cc2[nH]\c1=N\C [SACC-0010666] |  |  |  |  |  |  |  |  |  |  | HDF average % growth inhibition ([1]; human, 48 h, 20 μmol L^−1): −4.62%; EC50 [2]: 0.914 µM; IC50 [2]: 0.808 µM; inhibition at 12 µM [2]: 4.47%; EC50 ([3]; Cricetulus griseus, CHO-K1, V/O cells, first addition): 1.35 µM; IC50 ([3]; Cricetulus griseus, CHO-K1, V/O cells, second addition Rhimi-K-1 1 μmol L^−1, read-out: V/O antagonist IC50): 14.9 µM; IC50 [3, 16]: 14.9 µM |

Further lines, with some results ahead:

| Inhibitory Efficacy at 12 μM ([2]; 12 μM, BMLK3 cells) [%] | EC50 [2, 7] [µM] | IC50 [2, 8] [µM] | EC50 [2, 9] [µM] | IC50 [2, 10] [µM] | Molecule | HDF average % growth inhibition [1, 6] [%] | EC50 ([3]; V/O cells, first addition) [µM] | IC50 [3, 11] [µM] | EC50 [3, 12] [µM] | IC50 [3, 12] [µM] | other results |
| --- | --- | --- | --- | --- | --- | --- | --- | --- | --- | --- | --- |
| 50.31 |  |  |  |  | Cc1ccc(S(=O)(=O)NN2C(=O)C(=Cc3cccc4ccccc34)SC2=S)cc1 [SACC-0412062] | 8.117 |  |  | 6.26 | 7.36 | effect on hindgut contraction elicited by 1728, in words ([5]; compound 100 μmol L^−1, 5 min, then 1728 10 μmol L^−1, 1 h): inhibited the increased rate of muscle contraction; EC50 ([3]; Table 5 analogs, V/O cells): 6.26 µM; IC50 [3, 13]: 7.36 µM |
| 71.31 |  |  | 5.4 | 7.17 | CSc1nc2ccc(NS(=O)(=O)c3ccc(Cl)s3)cc2s1 [SACC-0099442] | −1.16 |  |  | 10.8 | 1.12 | activity type in dose-response assay, in words ([2]; BMLK3 cells): full agonist; EC50 [2, 14]: 5.4 µM; IC50 [2, 15]: 7.17 µM; EC50 [3, 17]: 10.8 µM; IC50 [3, 18]: 1.12 µM |
| 48.16 |  |  | 0.978 | 0.509 | Cc1ccc(C=C2SC(=S)N(NS(=O)(=O)c3ccc(C)cc3)C2=O)cc1 [SACC-0412061] | −1.013 |  |  | 5.5 | 2.71 | activity type in dose-response assay, in words ([2]; BMLK3 cells): partial antagonists; EC50 ([2]; Table 5 analogs, first addition, read-out: BMLK3 EC50): 0.978 µM; IC50 ([2]; Table 5 analogs, second addition Rhimi-K-1 1 μmol L^−1, read-out: BMLK3 antagonist IC50): 0.509 µM; EC50 ([3]; Table 5 analogs, V/O cells): 5.5 µM; IC50 [3, 13]: 2.71 µM |
| 59.47 | 5.73 | 8.51 | 5.73 | 8.51 | O=C(O)COc1ccc(Br)cc1/C=N/Nc1cccc2cccnc12 [SACC-0126875] | 7.477 | 4.61 | > 25 | 4.61 | > 25 |  |
